# From US20230165867A1 (CHENGDU BAIYU PHARMACEUTICAL CO., LTD., priority 2020, published 2023)
# Where two headings read alike, the source gives them in different places.
# Experiments:
# DNA-PK kinase = target: T1, DNA-PK kinase (Homo sapiens, UniProt P78527); assay: Inhibition assay of DNA-PK kinase (Promega kit, ADP-Glo chemiluminescence); format: biochemical; conditions: 50 µM ATP, 37° C., 60 min; read-out: IC50 (nM), inhibitory activity on DNA-PK kinase
# T1 construct: purchased Promega V4107
# Procedure: The inhibitory activity of the compounds on DNA-PK kinase was measured by using a DNA-PK kinase assay kit (purchased from Promega, Cat.#: V4107, Lot: 0000366495). The results were quantified by chemiluminescence, and the detailed experimental protocol was as follows: • i. An ADP-fluorescence standard curve over a range of concentrations was plotted according to the kit instructions; • ii. […] The mixtures were mixed well, centrifuged (1000 rpm, 30 s), and incubated at 37° C. for 60 min; • iv. 5 µL of ADP-Glo™ Reagent was added to stop the reaction, which was then mixed well, centrifuged (1000 rpm, 30 s), and incubated at room temperature for 40 min; • v. 10 µL Kinase Detection Reagent was added, and the mixture was mixed well by shaking, centrifuged (1000 rpm, 30 s), and incubated at room temperature for 30 min; • vi. The […] was measured by using a microplate reader (Thermo fisher, Varioskan LUX).
# [1] = Pharmacokinetic assay in ICR mice (i.v. and p.o.); format: in vivo; conditions: mouse, plasma, male ICR mice; for half-life: read-out: T½ (converted); for bioavailability: po 10 mg/kg vs iv 1 mg/kg
# Procedure: ICR mice were purchased from Beijing Vital River Laboratory Animal Technology Co., Ltd.
# 3.2 Experimental procedure • (1) Healthy male ICR mice (18-22 g) were prepared, with 18 mice for each compound. The mice were divided into 2 groups (an i.v. group and a p.o. group), with 9 mice per group. 3 mice were picked for blood collection at each time point. • (2) After the animals were fasted overnight (with free access to water), the compound of the present invention dissolved (or suspended) in a solvent of 5% DMSO and 95% 30% HP-β-CD (v:v) was administered via the tail vein (i.v., 1 mg/kg) or intragastrically (p.o., 10 mg/kg), respectively. • (3) For the i.v. group, 0.1 mL blood was collected from the submandibular vein 5 min, 15 min, 0.5 h, 1 h, 2 h, 4 h, 8 h, 12 h, and 24 h after administration, respectively, anticoagulated with EDTA-K2, and centrifuged at 4° C. for 5 min to obtain plasma, which was stored at -20° C. until testing. (4) For the p.o. group, 0.1 mL blood was collected from the submandibular vein before administration and 15 min, 0.5 h, 1 h, 2 h, 4 h, 6 h, 8 h, 12 h, and 24 h after administration, and treated in the same manner as that for the intravenous group. • (5) The concentration of the compound of the present invention in plasma was measured by LC/MS/MS. • (6) Calculation and fitting were performed with Analyst 1.6 from AB Company, and the results are shown in Table 3.
IC50 (DNA-PK kinase),Compound,other results
0.6 nM,"Cc1cc(C(N)=O)c(F)cc1Nc1ncc2c(n1)n(C1CCCC(O)C1)c(=O)n2C (stereo not drawn) [Compound 95, 2-Fluoro-4-((9-(-3-hydroxycyclohexyl)-7-methyl-8-oxo-8,9-dihydro-7H-purin-2-yl)amino)-5-methylbenzamide]",
3.89 nM,"Cc1cc(C(N)=O)c(F)cc1Nc1ncc2c(n1)n(C1CCC(CO)OC1)c(=O)n2C (stereo not drawn) [Compound 96, 2-Fluoro-4-((9-(6-(hydroxymethyl)tetrahydro-2H-pyran-3-yl)-7-methyl-8-oxo-8,9-dihydro-7H-purin-2-yl)amino)-5-methylbenzamide]",
0.68 nM,"Cc1cc(C(N)=O)c(F)cc1Nc1ncc2c(n1)n(C1CC3(CC(CO)C3)C1)c(=O)n2C (stereo not drawn) [Compound 97, 2-Fluoro-4-((9-(6-(hydroxymethyl)spiro[3.3]heptan-2-yl)-7-methyl-8-oxo-8,9-dihydro-7H-purin-2-yl)amino)-5-methylbenzamide]",
4.01 nM,"Cc1cc(C#N)ccc1Nc1ncc2c(n1)n(C1CC3CC(O)CC3C1)c(=O)n2C (stereo not drawn) [Compound 98, 4-[(9-(5-hydroxy-octahydropentalen-2-yl)-7-methyl-8-oxo-8,9-dihydro-7H-purin-2-yl)amino]-3-methylbenzonitrile]",
2.13 nM,"Cc1cc(C(N)=O)c(F)cc1Nc1ncc2c(n1)n(C1C[C@@H]3COC[C@H]3C1)c(=O)n2C [Compound 99, 2-fluoro-4-((9-((3aS,6aS)-hexahydro-1H-cyclopenta[c]furan-5-yl)-7-methyl-8-oxo-8,9-dihydro-7H-purin-2-yl)amino)-5-methylbenzamide]",
2.2 nM,"Cc1cc(C#N)ccc1Nc1ncc2c(n1)n(C1CC3COCC3C1)c(=O)n2C (stereo not drawn) [Compound 100, 4-((9-(hexahydro-1H-cyclopenta[c]furan-5-yl)-7-methyl-8-oxo-8,9-dihydro-7H-purin-2-yl)amino)-3-methylbenzonitrile]",
9.6 nM,"Cc1cc(C#N)ccc1Nc1ncc2c(n1)n(C1CCS(=O)(=O)CC1)c(=O)n2C [Compound 101, 4-((9-(1,1-dioxidotetrahydro-2H-thiopyran-4-yl)-7-methyl-8-oxo-8,9-dihydro-7H-purin-2-yl)amino)-3-methylbenzonitrile]",
5.54 nM,"[2H]C([2H])([2H])C([2H])([2H])n1c(=O)n(C2CCOCC2)c2nc(Nc3cc(F)c(C(N)=O)cc3C)ncc21 [Compound 105, 4-((7-(ethyl-d5)-8-oxo-9-(tetrahydro-2H-pyran-4-yl)-8,9-dihydro-7H-purin-2-yl)amino)-2-fluoro-5-methylbenzamide]",
6.75 nM,"Cc1cc(C(N)=O)c(F)cc1Nc1ncc2c(n1)n(C1CCOCC1)c(=O)n2CC(F)F [Compound 106, 4-((7-(2,2-difluoroethyl)-8-oxo-9-(tetrahydro-2H-pyran-4-yl)-8,9-dihydro-7H-purin-2-yl)amino)-2-fluoro-5-methylbenzamide]",
10.1 nM,"CCn1c(=O)n([C@H]2CCOC2)c2nc(Nc3cc(F)c(C(N)=O)cc3C)ncc21 [Compound 107, (S)((7-Ethyl-8-oxo-9-(tetrahydrofuran-3-yl)-8,9-dihydro-7H-purin-2-yl)amino)-2-fluoro-5-methylbenzamide]",
5.54 nM,"Cc1cc(C(N)=O)c(F)cc1Nc1ncc2c(n1)n(C1CCOCC1)c(=O)n2CCF [Compound 109, 2-Fluoro-4-((7-(2-fluoroethyl)-8-oxo-9-(tetrahydro-2H-pyran-4-yl)-8,9-dihydro-7H-purin-2-yl)amino)-5-methylbenzamide]",

# The remaining lines, values behind:
Compound,IC50 (DNA-PK kinase),other results
"CCn1c(=O)n(C2CCOCC2)c2nc(Nc3cc(F)c(C(N)=O)cc3C)ncc21 [Compound 62, 4-((7-ethyl-8-oxo-9-(tetrahydro-2H-pyran-4-yl)-8,9-dihydro-7H-purin-2-yl)amino)-2-fluoro-5-methylbenzamide]",4.17 nM,"AUC ([1]; iv, 1 mg/kg): 1190 ng·h/mL; half-life ([1]; iv, 1 mg/kg): 1.69 h; bioavailability [1]: 44.8%; AUC ([1]; po, 10 mg/kg): 4720 ng·h/mL; Cmax ([1]; po, 10 mg/kg): 1850 ng/mL; half-life ([1]; po, 10 mg/kg): 3.01 h"
"CO[C@H]1CC[C@H](n2c(=O)n(C)c3cnc(Nc4cc(F)c(C(N)=O)cc4C)nc32)CC1 [Compound 71, 2-Fluoro-4-((9-(trans-4-methoxycyclohexyl)-7-methyl-8-oxo-8,9-dihydro-7H-purin-2-yl)amino)-5-methylbenzamide]",2.17 nM,
"Cc1cc(C#N)ccc1Nc1ncc2c(n1)n([C@H]1CC[C@@H](C#N)CC1)c(=O)n2C [Compound 78, 4-((9-(cis-4-cyanocyclohexyl)-7-methyl-8-oxo-8,9-dihydro-7H-purin-2-yl)amino)-3-methylbenzonitrile]",0.038 nM,"AUC ([1]; iv, 1 mg/kg): 216 ng·h/mL; half-life ([1]; iv, 1 mg/kg): 1.17 h; bioavailability [1]: 65.2%; AUC ([1]; po, 10 mg/kg): 1200 ng·h/mL; Cmax ([1]; po, 10 mg/kg): 446 ng/mL; half-life ([1]; po, 10 mg/kg): 3.5 h"
"Cc1cc(C(N)=O)c(F)cc1Nc1ncc2c(n1)n(C1C[C@H]3CC(O)C[C@H]3C1)c(=O)n2C (stereo partly drawn) [Compound 84, 2-Fluoro-4-((9-((3aR,6aS)-5-hydroxyoctahydropentalen-2-yl)-7-methyl-8-oxo-8,9-dihydro-7H-purin-2-yl)amino)-5-methylbenzamide]",0.24 nM,
"Cc1cc(C(N)=O)c(F)cc1Nc1ncc2c(n1)n(C1CCC3(CC1)COC3)c(=O)n2C [Compound 86, 2-Fluoro-5-methyl-4-((7-methyl-8-oxo-9-(2-oxaspiro[3.5]nonan-7-yl)-8,9-dihydro-7H-purin-2-yl)amino)benzamide]",0.44 nM,
"Cc1cc(C(N)=O)c(F)cc1Nc1ncc2c(n1)n(C1CC3(COC3)C1)c(=O)n2C [Compound 89, 2-Fluoro-5-methyl-4-((7-methyl-8-oxo-9-(2-oxaspiro[3.3]heptan-6-yl)-8,9-dihydro-7H-purin-2-yl)amino)benzamide]",3.83 nM,
"Cc1cc(C(N)=O)c(F)cc1Nc1ncc2c(n1)n(C13CCC(C#N)(CC1)CC3)c(=O)n2C [Compound 90, 4-((9-(4-cyanobicyclo[2.2.2]octan-1-yl)-7-methyl-8-oxo-8,9-dihydro-7H-purin-2-yl)amino)-2-fluoro-5-methylbenzamide]",10.8 nM,
"Cc1cc(C(N)=O)c(F)cc1Nc1ncc2c(n1)n(C1CCCC(C)(O)C1)c(=O)n2C (stereo not drawn) [Compound 91, 2-Fluoro-4-((9-(3-hydroxy-3-methylcyclohexyl)-7-methyl-8-oxo-8,9-dihydro-7H-purin-2-yl)amino)-5-methylbenzamide]",2.44 nM,
"Cc1cc(C(N)=O)c(F)cc1Nc1ncc2c(n1)n(C1CCC(C)(C#N)CC1)c(=O)n2C (stereo not drawn) [Compound 92, 4-((9-(4-cyano-4-methylcyclohexyl)-7-methyl-8-oxo-8,9-dihydro-7H-purin-2-yl)amino)-2-fluoro-5-methylbenzamide]",0.02 nM,
"Cc1cc(C(N)=O)c(F)cc1Nc1ncc2c(n1)n([C@H]1C[C@@H](O)C1)c(=O)n2C [Compound 94, 2-Fluoro-4-((9-(cis-3-hydroxycyclobutyl)-7-methyl-8-oxo-8,9-dihydro-7H-purin-2-yl)amino)-5-methylbenzamide]",7.2 nM,
